Numbers after ± are expanded uncertainties.
Assays:
[1] = refractive index (Na D-line) (dimensionless); conditions: 101.33 kPa, Liquid, Standard Abbe refractometry
[2] = 101.33 kPa, Liquid; for electrical conductivity: Alternating current cell with electrodes; for viscosity: Falling or rolling sphere viscometry; for mass density: Vibrating tube method

CC[S+](C)CC.O=S(=O)([N-]S(=O)(=O)C(F)(F)F)C(F)(F)F [diethylmethylsulfonium bis[(trifluoromethyl)sulfonyl]imide]
Conditions	electrical conductivity, [2] [S/m]	mass density, [2] [kg/m3]	refractive index, [1]	viscosity, [2] [mPa·s]
258.15 K	0.0975 ± 0.0015	–	–	–
268.15 K	0.182 ± 0.0027	–	–	–
278.15 K	0.305 ± 0.0046	1520.53 ± 3.1	–	98.6 ± 2.6
283.15 K	–	–	1.4276 ± 0.0029	–
288.15 K	0.473 ± 0.0071	1510.56 ± 3.1	1.4262 ± 0.0029	61.05 ± 1.1
293.15 K	–	–	1.4247 ± 0.0029	–
298.15 K	0.688 ± 0.01	1500.71 ± 3.1	1.4233 ± 0.0029	40.71 ± 0.72
303.15 K	–	–	1.4219 ± 0.0029	–
308.15 K	0.95 ± 0.014	1490.96 ± 3	1.4204 ± 0.0029	28.55 ± 0.5
313.15 K	–	–	1.419 ± 0.0029	–
318.15 K	1.26 ± 0.019	1481.3 ± 3	1.4175 ± 0.0029	20.95 ± 0.37
323.15 K	–	–	1.4161 ± 0.0029	–
328.15 K	1.61 ± 0.024	1471.73 ± 3	1.4146 ± 0.0029	15.73 ± 0.28
333.15 K	–	–	1.4132 ± 0.0028	–
338.15 K	2 ± 0.03	1462.25 ± 3	1.4118 ± 0.0028	12.34 ± 0.22
343.15 K	–	–	1.4103 ± 0.0028	–
348.15 K	2.43 ± 0.036	–	–	9.945 ± 0.17
358.15 K	2.88 ± 0.043	–	–	8.183 ± 0.14
368.15 K	3.37 ± 0.051	–	–	6.826 ± 0.12
378.15 K	3.89 ± 0.058	–	–	5.793 ± 0.1
388.15 K	4.43 ± 0.066	–	–	4.981 ± 0.087
398.15 K	4.99 ± 0.075	–	–	4.331 ± 0.075
418.15 K	6.16 ± 0.092	–	–	–
438.15 K	7.38 ± 0.11	–	–	–
458.15 K	8.63 ± 0.13	–	–	–

CCCCCCCC[N+](C)(CCCCCCCC)CCCCCCCC.O=C([O-])C(F)(F)F [methyltrioctylammonium trifluoroacetate]
[2]
Conditions	electrical conductivity [S/m]	mass density [kg/m3]	viscosity [mPa·s]
288.15 K	–	–	3629 ± 520
298.15 K	0.00155 ± 2.4e-05	962.478 ± 2.1	1551 ± 180
303.15 K	–	959.262 ± 2	–
308.15 K	0.00329 ± 5e-05	956.054 ± 2	735.2 ± 67
313.15 K	–	952.805 ± 2	–
318.15 K	0.0063 ± 9.5e-05	949.626 ± 2	380.8 ± 26
323.15 K	–	946.478 ± 2	–
328.15 K	0.0112 ± 0.00017	943.335 ± 2	212.1 ± 11
333.15 K	–	940.189 ± 2	–
338.15 K	0.0185 ± 0.00028	937.046 ± 2	126.7 ± 4.3
343.15 K	–	933.904 ± 2	–
348.15 K	0.0293 ± 0.00044	930.772 ± 2	79.97 ± 1.9
353.15 K	–	927.648 ± 2	–
358.15 K	0.0444 ± 0.00067	924.529 ± 2	53.33 ± 0.99
363.15 K	–	921.418 ± 2	–
368.15 K	0.0647 ± 0.00097	–	36.92 ± 0.73
378.15 K	0.0924 ± 0.0014	–	26.69 ± 0.52
388.15 K	0.125 ± 0.0019	–	19.8 ± 0.39
398.15 K	–	–	15.03 ± 0.3

CC[S+](CC)CC.O=S(=O)([N-]S(=O)(=O)C(F)(F)F)C(F)(F)F [triethylsulfonium bis((trifluoromethyl)sulfonyl)imide]
Conditions	electrical conductivity [S/m]	mass density [kg/m3]	refractive index	viscosity [mPa·s]
[1], 283.15 K	–	–	1.4308 ± 0.0029	–
[1], 288.15 K	–	–	1.4293 ± 0.0029	–
[1], 293.15 K	–	–	1.4279 ± 0.0029	–
[1], 298.15 K	–	–	1.4264 ± 0.0029	–
[1], 303.15 K	–	–	1.4249 ± 0.0029	–
[1], 308.15 K	–	–	1.4234 ± 0.0029	–
[1], 313.15 K	–	–	1.4219 ± 0.0029	–
[1], 318.15 K	–	–	1.4204 ± 0.0029	–
[1], 323.15 K	–	–	1.419 ± 0.0029	–
[1], 328.15 K	–	–	1.4175 ± 0.0029	–
[1], 333.15 K	–	–	1.4161 ± 0.0029	–
[1], 338.15 K	–	–	1.4148 ± 0.0029	–
[1], 343.15 K	–	–	1.4134 ± 0.0028	–
[2], 258.15 K	0.0992 ± 0.0015	–	–	–
[2], 268.15 K	0.186 ± 0.0028	–	–	–
[2], 278.15 K	0.314 ± 0.0047	1479.69 ± 3	–	80.5 ± 1.8
[2], 288.15 K	0.487 ± 0.0073	1469.86 ± 3	–	49.88 ± 0.9
[2], 298.15 K	0.708 ± 0.011	1460.14 ± 3	–	33.36 ± 0.59
[2], 308.15 K	0.975 ± 0.015	1450.51 ± 3	–	23.5 ± 0.41
[2], 318.15 K	1.29 ± 0.019	1440.97 ± 2.9	–	17.34 ± 0.3
[2], 328.15 K	1.64 ± 0.025	1431.52 ± 2.9	–	13.26 ± 0.23
[2], 338.15 K	2.03 ± 0.03	1422.15 ± 2.9	–	10.44 ± 0.18
[2], 348.15 K	2.46 ± 0.037	–	–	8.445 ± 0.15
[2], 358.15 K	2.91 ± 0.044	–	–	6.963 ± 0.12
[2], 368.15 K	3.4 ± 0.051	–	–	5.849 ± 0.1
[2], 378.15 K	3.92 ± 0.059	–	–	4.99 ± 0.087
[2], 388.15 K	4.43 ± 0.07	–	–	4.312 ± 0.075
[2], 398.15 K	5 ± 0.075	–	–	3.768 ± 0.066
[2], 408.15 K	5.58 ± 0.084	–	–	–
[2], 418.15 K	6.16 ± 0.092	–	–	–
[2], 428.15 K	6.76 ± 0.1	–	–	–
[2], 438.15 K	7.37 ± 0.11	–	–	–
[2], 448.15 K	7.98 ± 0.12	–	–	–
[2], 458.15 K	8.59 ± 0.13	–	–	–
[2], 468.15 K	9.17 ± 0.14	–	–	–
